Source: patent publication US20210038607A1, “OXADIAZOLYLTHIOPHENE DERIVATIVES USEFUL AS HISTONE DEACETYLASE INHIBITORS” (Karus Therapeutics Limited, priority 2018, published 2021)

How the values were obtained:
[1] = tested on: acetylated α-tubulin in A549 lung adenocarcinoma cells; experiment: Acetylated α-tubulin in-cell western (ICW) assay; assay type: cell-based; settings: Homo sapiens, 16 h exposure, relative to 40 μM scriptaid positive control, read-out: EC50 Ac-α-tubulin, A549 cells
Description: (§1) Acetylated α-Tubulin and Histone H3 in-Cell Western (ICW) Assays
(§2) A549 cells were maintained in DMEM (Life Technologies)+10% FBS+2 mM glutamine & penicillin (10 μg/mL) and streptomycin ([…]. 10,000 A549 cells per well were plated into 96 well tissue culture plates (Corning) and incubated at 37° C. overnight in a humidified atmosphere containing 5% CO2 prior to addition of compounds. Compounds (dissolved in 100% DMSO) were diluted into cell culture media at 2× final assay concentration. 2× compound or DMSO (negative control) were added to cells (final DMSO concentration 0.4%). Untreated control wells received media. For acetylated α-tubulin assays, 40 μM scriptaid was used as a positive control. For acetylated histone H3 assays, 40 μM Trichostatin A (TSA) was used as a positive control. Cells were exposed to compound at 37° C. in a humidified atmosphere containing 5% CO2 for 16 h.
(§3) Measurement of the impact of compounds on levels of acetylated α-tubulin and histone H3 was performed using specific antibodies and near-infrared immunofluorescent dyes. Briefly, media was removed from wells of assay plates. Cells were washed once with PBS and fixed in 3.7% formaldehyde PBS solution at room temperature for 20 min. Cells were then permeabilised by washing 5 times in 0.1% triton-X-100 PBS at room temperature with gentle agitation for 5 min per wash. Non-specific antibody staining was blocked by the addition of Odyssey blocking buffer (Li-Cor) for 1.5 h at room temperature with gentle agitation. Cells were then incubated with primary antibody (mouse monoclonal anti-acetylated α-tubulin (clone 6-11B-1), Sigma or rabbit polyclonal anti-acetylated histone H3, Millipore) diluted in Odyssey blocking buffer at 4° C. with gentle shaking overnight (no antibody control and secondary antibody only wells were incubated with Odyssey blocking buffer only). Cells were washed five times with 0.1% tween PBS and labelled with secondary antibody (IR dye 800CW-conjugated goat anti mouse IgG or -goat anti rabbit IgG, Li-Cor) and cell stains Sapphire700 (Li-Cor) and Draq5 (Biostatus) diluted in Odyssey blocking buffer at room temperature in the dark with gentle shaking for 1 h (no antibody control wells were incubated with Odyssey blocking buffer only and secondary antibody only with diluted secondary antibody but no cell stains). Cells were washed with 0.1% Tween PBS five times and scanned using a Li-Cor Odyssey SA plate reader in 700 and 800 nm channels. Acetylated α-tubulin or histone H3 signal was normalised to cell number using the cell stain signal. Percentage increase in acetylated α-tubulin or histone H3 after compound treatment over the mean of DMSO treated controls, relative to scriptaid and TSA positive controls, respectively was calculated. EC50 values were calculated using GraphPad Prism software and nonlinear regression with 0% bottom and 100% top constraints.

[2] = tested on: acetylated histone H3 in A549 lung adenocarcinoma cells; experiment: Acetylated histone H3 in-cell western (ICW) assay; assay type: cell-based; settings: Homo sapiens, 16 h exposure, relative to 40 μM Trichostatin A positive control, read-out: EC50 Ac-histone H3, A549 cells
Description: as §1, §2, §3

COC1(C(F)(F)F)CN(C(=O)c2cnnc(N(Cc3ccc(-c4noc(C(F)(F)F)n4)s3)c3cnccn3)c2)C1 [Example GL, 5-[3-Methoxy-3-(trifluoromethyl)azetidine-1-carbonyl]-N-(pyrazin-2-yl)-N-({5-[5-(trifluoromethyl)-1,2,4-oxadiazol-3-yl]thiophen-2-yl}methyl)pyridazin-3-amine]
EC50 [1]: ≤ 1 µM
EC50 [2]: ≥ 10 µM

O=C(c1ccc(N(Cc2ccc(-c3noc(C(F)(F)F)n3)s2)c2cnccn2)nn1)N1CC(O)(C(F)(F)F)C1 [Example FK, 1-{6-[(Pyrazin-2-yl)({5-[5-(trifluoromethyl)-1,2,4-oxadiazol-3-yl]thiophen-2-yl}methyl)amino]pyridazine-3-carbonyl}-3-(trifluoromethyl)azetidin-3-ol]
EC50 [1]: ≤ 1 µM
EC50 [2]: ≥ 10 µM

O=C(O)c1cnnc(N(Cc2ccc(-c3noc(C(F)(F)F)n3)s2)c2cnccn2)c1 [Example DW, 6-[(Pyrazin-2-yl)({5-[5-(trifluoromethyl)-1,2,4-oxadiazol-3-yl]thiophen-2-yl}methyl)amino]pyridazine-4-carboxylic acid]
EC50 [1]: ≥ 10 µM
EC50 [2]: ≥ 10 µM

O=C(c1ccc(N(Cc2ccc(-c3noc(C(F)(F)F)n3)s2)c2cnccn2)nn1)N1CCC2(COC2)C1 [Example FJ, 6-{2-Oxa-6-azaspiro[3.4]octane-6-carbonyl}-N-(pyrazin-2-yl)-N-({5-[5-(trifluoromethyl)-1,2,4-oxadiazol-3-yl]thiophen-2-yl}methyl)pyridazin-3-amine]
EC50 [1]: ≤ 1 µM
EC50 [2]: ≥ 10 µM

O=C(c1cnnc(N(Cc2ccc(-c3noc(C(F)(F)F)n3)s2)c2cnccn2)c1)N1CCC12COC2 [Example GF, 5-{6-Oxa-1-azaspiro[3.3]heptane-1-carbonyl}-N-(pyrazin-2-yl)-N-({5-[5-(trifluoromethyl)-1,2,4-oxadiazol-3-yl]thiophen-2-yl}methyl)pyridazin-3-amine]
EC50 [1]: ≤ 1 µM
EC50 [2]: ≥ 10 µM

NC(=O)c1cnnc(N(Cc2ccc(-c3noc(C(F)(F)F)n3)s2)c2cnccn2)c1 [Example DX, 6-[(Pyrazin-2-yl)({5-[5-(trifluoromethyl)-1,2,4-oxadiazol-3-yl]thiophen-2-yl}methyl)amino]pyridazine-4-carboxamide]
EC50 [1]: ≤ 1 µM
EC50 [2]: ≥ 10 µM

O=C(c1cnnc(N(Cc2ccc(-c3noc(C(F)(F)F)n3)s2)c2cnccn2)c1)N1CC(C(F)F)C1 [Example GK, 5-[3-(Difluoromethyl)azetidine-1-carbonyl]-N-(pyrazin-2-yl)-N-({5-[5-(trifluoromethyl)-1,2,4-oxadiazol-3-yl]thiophen-2-yl}methyl)pyridazin-3-amine]
EC50 [1]: ≤ 1 µM
EC50 [2]: ≥ 10 µM

O=C(c1ccc(N(Cc2ccc(-c3noc(C(F)(F)F)n3)s2)c2cnccn2)nn1)N1CCCCC1 [Example FG, 6-(Piperidine-1-carbonyl)-N-(pyrazin-2-yl)-N-({5-[5-(trifluoromethyl)-1,2,4-oxadiazol-3-yl]thiophen-2-yl}methyl)pyridazin-3-amine]
EC50 [1]: ≤ 1 µM
EC50 [2]: ≥ 10 µM

CNC(=O)c1ccc(N(Cc2ccc(-c3noc(C(F)(F)F)n3)s2)c2cnccn2)nn1 [Example FC, N-Methyl-6-[(pyrazin-2-yl)({5-[5-(trifluoromethyl)-1,2,4-oxadiazol-3-yl]thiophen-2-yl}methyl)amino]pyridazine-3-carboxamide]
EC50 [1]: ≤ 1 µM
EC50 [2]: ≥ 10 µM

FC(F)(F)c1cnnc(N(Cc2ccc(-c3noc(C(F)(F)F)n3)s2)c2cc(C(F)(F)F)cnn2)c1 [Example EU, 5-(Trifluoromethyl)-N-({5-[5-(trifluoromethyl)-1,2,4-oxadiazol-3-yl]thiophen-2-yl}methyl)-N-[5-(trifluoromethyl)pyridazin-3-yl]pyridazin-3-amine]
EC50 [1]: ≤ 1 µM
EC50 [2]: ≥ 10 µM

COC1CN(Cc2ccnc(N(Cc3ccc(-c4noc(C(F)(F)F)n4)s3)c3cnccn3)c2)C1 [Example GH, N-{4-[(3-Methoxyazetidin-1-yl)methyl]pyridin-2-yl}-N-({5-[5-(trifluoromethyl)-1,2,4-oxadiazol-3-yl]thiophen-2-yl}methyl)pyrazin-2-amine]
EC50 [1]: ≤ 1 µM
EC50 [2]: ≥ 10 µM

O=C(c1ccc(N(Cc2ccc(-c3noc(C(F)(F)F)n3)s2)c2cnccn2)nn1)N1CCC1 [Example FF, 6-(Azetidine-1-carbonyl)-N-(pyrazin-2-yl)-N-({5-[5-(trifluoromethyl)-1,2,4-oxadiazol-3-yl]thiophen-2-yl}methyl)pyridazin-3-amine]
EC50 [1]: ≤ 1 µM
EC50 [2]: ≥ 10 µM

O=C(c1cnnc(N(Cc2ccc(-c3noc(C(F)(F)F)n3)s2)c2cnccn2)c1)N1CCCC1 [Example EA, N-(Pyrazin-2-yl)-5-(pyrrolidine-1-carbonyl)-N-({5-[5-(trifluoromethyl)-1,2,4-oxadiazol-3-yl]thiophen-2-yl}methyl)pyridazin-3-amine]
EC50 [1]: ≤ 1 µM
EC50 [2]: ≥ 10 µM

O=C(c1cnnc(N(Cc2ccc(-c3noc(C(F)(F)F)n3)s2)c2cnccn2)c1)N1CCS(=O)(=O)CC1 [Example ED, 4-{6-[(Pyrazin-2-yl)({5-[5-(trifluoromethyl)-1,2,4-oxadiazol-3-yl]thiophen-2-yl}methyl)amino]pyridazine-4-carbonyl}-1λ^6-thiomorpholine-1,1-dione]
EC50 [1]: ≤ 1 µM
EC50 [2]: ≥ 10 µM

O=C(O)c1cnnc(N(Cc2ccc(-c3noc(C(F)(F)F)n3)s2)c2cc(C(F)(F)F)cnn2)c1 [Example ES, 6-[({5-[5-(Trifluoromethyl)-1,2,4-oxadiazol-3-yl]thiophen-2-yl}methyl)[5-(trifluoromethyl)pyridazin-3-yl]amino]pyridazine-4-carboxylicacid]
EC50 [1]: ≥ 10 µM
EC50 [2]: ≥ 10 µM

FC(F)(F)c1cnnc(N(Cc2ccc(-c3noc(C(F)(F)F)n3)s2)c2cnccn2)c1 [Example EF, N-(Pyrazin-2-yl)-5-(trifluoromethyl)-N-({5-[5-(trifluoromethyl)-1,2,4-oxadiazol-3-yl]thiophen-2-yl}methyl)pyridazin-3-amine]
EC50 [1]: 1 to 10 µM
EC50 [2]: ≥ 10 µM

FC(F)(F)c1nc(-c2ccc(CN(c3cnccn3)c3ccc(CN4CCOCC4)nn3)s2)no1 [Example FN, 6-[(Morpholin-4-yl)methyl]-N-(pyrazin-2-yl)-N-({5-[5-(trifluoromethyl)-1,2,4-oxadiazol-3-yl]thiophen-2-yl}methyl)pyridazin-3-amine]
EC50 [1]: ≤ 1 µM
EC50 [2]: ≥ 10 µM

[O-][S+]1CCN(Cc2ccc(N(Cc3ccc(-c4noc(C(F)(F)F)n4)s3)c3cnccn3)nn2)CC1 [Example FO, 4-({6-[(Pyrazin-2-yl)({5-[5-(trifluoromethyl)-1,2,4-oxadiazol-3-yl]thiophen-2-yl}methyl)amino]pyridazin-3-yl}methyl)-1lambda4-thiomorpholin-1-one]
EC50 [1]: ≤ 1 µM
EC50 [2]: ≥ 10 µM

CNC(=O)c1cnnc(N(Cc2ccc(-c3noc(C(F)(F)F)n3)s2)c2cnccn2)c1 [Example DY, N-Methyl-6-[(pyrazin-2-yl)({5-[5-(trifluoromethyl)-1,2,4-oxadiazol-3-yl]thiophen-2-yl}methyl)amino]pyridazine-4-carboxamide]
EC50 [1]: ≤ 1 µM
EC50 [2]: ≥ 10 µM

O=C(c1cnnc(N(Cc2ccc(-c3noc(C(F)(F)F)n3)s2)c2cnccn2)c1)N1CC[S+]([O-])CC1 [Example FU, 4-{6-[(Pyrazin-2-yl)({5-[5-(trifluoromethyl)-1,2,4-oxadiazol-3-yl]thiophen-2-yl}methyl)amino]pyridazine-4-carbonyl}-1lambda4-thiomorpholin-1-one]
EC50 [1]: ≤ 1 µM
EC50 [2]: ≥ 10 µM

O=C(c1ccc(N(Cc2ccc(-c3noc(C(F)(F)F)n3)s2)c2cnccn2)nn1)N1CCCC1 [Example FI, N-(Pyrazin-2-yl)-6-(pyrrolidine-1-carbonyl)-N-({5-[5-(trifluoromethyl)-1,2,4-oxadiazol-3-yl]thiophen-2-yl}methyl)pyridazin-3-amine]
EC50 [1]: ≤ 1 µM
EC50 [2]: ≥ 10 µM

CN1CCN(C(=O)c2cnnc(N(Cc3ccc(-c4noc(C(F)(F)F)n4)s3)c3cnccn3)c2)CC1 [Example EC, 5-(4-Methylpiperazine-1-carbonyl)-N-(pyrazin-2-yl)-N-({5-[5-(trifluoromethyl)-1,2,4-oxadiazol-3-yl]thiophen-2-yl}methyl)pyridazin-3-amine]
EC50 [1]: ≤ 1 µM
EC50 [2]: ≥ 10 µM
